Data: ChEMBL document CHEMBL4373722, “Selective, Small-Molecule Co-Factor Binding Site Inhibition of a Su(var)3-9, Enhancer of Zeste, Trithorax Domain Containing Lysine Methyltransferase” (J Med Chem, 2019)
Each block holds one molecule with its values, some of them ahead of it. Active and inactive are the calls of the source. No cut-off for these calls is given here.

What was measured:
[1] = molecular target: Histone-lysine N-methyltransferase KMT5B (Homo sapiens) (UniProt Q4FZB7); test: Inhibition of SUV420H1 in human MCF7 cells assessed as decrease in H4K20me3 level up to 50 uM measured after 2 days by immunoblot analysis; assay type: cell-based
[2] = molecular target: T1, N-lysine methyltransferase SMYD2 (Homo sapiens, UniProt Q9NRG4); test: Inhibition of recombinant human SMYD2 (1 to 433 residues) expressed in baculovirus infected Sf9 insect cells using biotinylated-p53 peptide (361 to 380 residues) as substrate measured after 120 mins in presence of 20 uM [3H]-SAM by scintillation proximity assay
[3] = molecular target: T1, N-lysine methyltransferase SMYD2; test: Inhibition of V5-tagged SMYD2 (unknown origin) transfected in HEK293 cells co-transfected with FLAG-tagged p53 assessed as reduction in p53 methylation at K370 residue measured after 20 hrs by immunoblot analysis; assay type: cell-based
[4] = molecular target: T1, N-lysine methyltransferase SMYD2; test: Inhibition of V5-tagged SMYD2 (unknown origin) transfected in human MDA-MB-231 cells co-transfected with FLAG-tagged p53 assessed as reduction in p53 methylation at K370 residue measured after 20 hrs by immunoblot analysis; assay type: cell-based
U2OS = test: Cytotoxicity against human U2OS cells up to 10 uM measured after 5 days by IncuCyte zoom live cell analysis; assay type: cell-based; conditions: 120 h
MCF7 [5] = test: Cytotoxicity against human MCF7 cells up to 10 uM measured after 5 days by IncuCyte zoom live cell analysis; assay type: cell-based; conditions: mcf7, 120 h
[6] = molecular target: T1, N-lysine methyltransferase SMYD2; test: Inhibition of V5-tagged SMYD2 (unknown origin) transfected in human HeLa cells co-transfected with FLAG-tagged p53 assessed as reduction in p53 methylation at K370 residue measured after 20 hrs by immunoblot analysis; assay type: cell-based
[7] = molecular target: T1, N-lysine methyltransferase SMYD2; test: Inhibition of V5-tagged SMYD2 (unknown origin) transfected in human CAL120 cells co-transfected with FLAG-tagged p53 assessed as reduction in p53 methylation at K370 residue measured after 20 hrs by immunoblot analysis; assay type: cell-based
Homo sapiens [8] = species: Homo sapiens; test: Selectivity ratio of IC50 for SUV420H1 (unknown origin) to IC50 for recombinant human SMYD2 (1 to 433 residues) expressed in baculovirus infected Sf9 insect cells at 40 uM using biotinylated-p53 peptide (361 to 380 residues) as substrate measured after 50 mins in presence of 70 nM [3H]-SAM
[9] = molecular target: T1, N-lysine methyltransferase SMYD2; test: Inhibition of recombinant human SMYD2 (1 to 433 residues) expressed in baculovirus infected Sf9 insect cells using biotinylated-p53 peptide (361 to 380 residues) as substrate measured after 50 mins in presence of 70 nM [3H]-SAM by scintillation proximity assay
[10] = Lipophilicity, log D of the compound; assay type: physicochemical; conditions: octanol/water
Homo sapiens [11] = species: Homo sapiens; test: Selectivity ratio of IC50 for SUV420H2 (unknown origin) to IC50 for recombinant human SMYD2 (1 to 433 residues) expressed in baculovirus infected Sf9 insect cells at 40 uM using biotinylated-p53 peptide (361 to 380 residues) as substrate measured after 50 mins in presence of 70 nM [3H]-SAM
[12] = Cytotoxicity against human TERA2D cells up to 10 uM measured after 5 days by IncuCyte zoom live cell analysis; assay type: cell-based; conditions: 120 h
Homo sapiens [13] = species: Homo sapiens; test: Selectivity ratio of IC50 for SUV420H2 in human MCF7 cells to IC50 for V5-tagged SMYD2 (unknown origin) transfected in human MCF7 cells co-transfected with FLAG-tagged p53; assay type: cell-based
[14] = molecular target: T1, N-lysine methyltransferase SMYD2; test: Inhibition of V5-tagged SMYD2 (unknown origin) transfected in human MCF7 cells co-transfected with FLAG-tagged p53 assessed as reduction in p53 methylation at K370 residue measured after 20 hrs by immunoblot analysis; assay type: cell-based
[15] = molecular target: T1, N-lysine methyltransferase SMYD2; test: Inhibition of V5-tagged SMYD2 (unknown origin) transfected in human U2OS cells co-transfected with FLAG-tagged p53 assessed as reduction in p53 methylation at K370 residue measured after 20 hrs by immunoblot analysis; assay type: cell-based
[16] = molecular target: T1, N-lysine methyltransferase SMYD2; test: Competitive inhibition of recombinant human SMYD2 (1 to 433 residues) expressed in baculovirus infected Sf9 insect cells using biotinylated-p53 peptide (361 to 380 residues) as substrate measured after 50 mins in presence of varying levels of [3H]-SAM by scintillation proximity assay
[17] = molecular target: T1, N-lysine methyltransferase SMYD2; test: Inhibition of V5-tagged SMYD2 (unknown origin) transfected in human MCF7 cells co-transfected with FLAG-tagged p53 assessed as reduction in p53 methylation at K370 residue at 10 uM measured after 20 hrs by immunoblot analysis relative to control; assay type: cell-based
Homo sapiens [18] = species: Homo sapiens; test: Selectivity ratio of IC50 for SUV420H1 in human MCF7 cells to IC50 for V5-tagged SMYD2 (unknown origin) transfected in human MCF7 cells co-transfected with FLAG-tagged p53; assay type: cell-based
[19] = molecular target: Histone-lysine N-methyltransferase KMT5C (Homo sapiens) (UniProt Q86Y97); test: Inhibition of SUV420H2 (unknown origin) at 1 uM using biotin-labeled peptide as substrate and [3H]-SAM measured after 1 hr by scintillation proximity assay
[20] = molecular target: Histone-lysine N-methyltransferase KMT5B (Homo sapiens) (UniProt Q4FZB7); test: Inhibition of SUV420H1 (unknown origin) at 1 uM using biotin-labeled peptide as substrate and [3H]-SAM measured after 1 hr by scintillation proximity assay
[21] = molecular target: Histone-lysine N-methyltransferase KMT5C (Homo sapiens) (UniProt Q86Y97); test: Inhibition of SUV420H2 in human MCF7 cells assessed as decrease in H4K20me3 level up to 50 uM measured after 2 days by immunoblot analysis; assay type: cell-based
[22] = molecular target: T1, N-lysine methyltransferase SMYD2; test: Mixed inhibition of recombinant human SMYD2 (1 to 433 residues) expressed in baculovirus infected Sf9 insect cells using varying levels of biotinylated-p53 peptide (361 to 380 residues) as substrate measured after 50 mins in presence of 2 uM [3H]-SAM by scintillation proximity assay
[23] = molecular target: T1, N-lysine methyltransferase SMYD2; test: Inhibition of recombinant human SMYD2 (1 to 433 residues) expressed in baculovirus infected Sf9 insect cells at 40 uM using biotinylated-p53 peptide (361 to 380 residues) as substrate measured after 50 mins in presence of 70 nM [3H]-SAM by scintillation proximity assay relative to control
MCF7 [24] = test: Effect on total p53 level in human MCF7 cells co-transfected with V5-tagged SMYD2/FLAG-tagged p53 up to 30 uM measured after 20 hrs by immunoblot analysis; assay type: ADME, cell-based; conditions: mcf7, 20 h
[25] = molecular target: T1, N-lysine methyltransferase SMYD2; test: Inhibition of V5-tagged SMYD2 (unknown origin) transfected in human MCF7 cells co-transfected with FLAG-tagged p53 assessed as reduction in p53 methylation at K370 residue at 30 uM measured after 20 hrs by immunoblot analysis; assay type: cell-based
[26] = molecular target: T1, N-lysine methyltransferase SMYD2; conditions: MCF7, 1 uM
Description: Inhibition of V5-tagged SMYD2 (unknown origin) transfected in human MCF7 cells co-transfected with FLAG-tagged p53 assessed as reduction in p53 methylation at K370 residue at 1 uM measured after 20 hrs by immunoblot analysis relative to control

[27] = molecular target: T1, N-lysine methyltransferase SMYD2; test: Inhibition of V5-tagged SMYD2 (unknown origin) transfected in human MCF7 cells co-transfected with FLAG-tagged p53 assessed as reduction in p53 methylation at K370 residue at 10 to 30 uM measured after 20 hrs by immunoblot analysis; assay type: cell-based

T1 sequence (Q9NRG4 whole entry, the tested form may be a part): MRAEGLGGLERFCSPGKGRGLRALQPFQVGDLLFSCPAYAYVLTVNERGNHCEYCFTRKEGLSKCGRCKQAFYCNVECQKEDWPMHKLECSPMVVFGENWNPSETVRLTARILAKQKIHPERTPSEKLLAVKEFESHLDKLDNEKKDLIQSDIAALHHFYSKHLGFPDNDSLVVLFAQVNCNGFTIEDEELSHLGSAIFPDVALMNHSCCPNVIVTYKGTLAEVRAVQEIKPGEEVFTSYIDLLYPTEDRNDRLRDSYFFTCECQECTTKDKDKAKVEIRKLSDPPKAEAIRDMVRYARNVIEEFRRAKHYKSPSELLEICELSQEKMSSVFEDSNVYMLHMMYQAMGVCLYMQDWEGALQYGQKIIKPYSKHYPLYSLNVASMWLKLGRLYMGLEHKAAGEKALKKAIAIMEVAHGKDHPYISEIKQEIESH
Chain of Histone-lysine N-methyltransferase KMT5C (Homo sapiens) (Q86Y97 whole entry, looked up, the tested form may be a part): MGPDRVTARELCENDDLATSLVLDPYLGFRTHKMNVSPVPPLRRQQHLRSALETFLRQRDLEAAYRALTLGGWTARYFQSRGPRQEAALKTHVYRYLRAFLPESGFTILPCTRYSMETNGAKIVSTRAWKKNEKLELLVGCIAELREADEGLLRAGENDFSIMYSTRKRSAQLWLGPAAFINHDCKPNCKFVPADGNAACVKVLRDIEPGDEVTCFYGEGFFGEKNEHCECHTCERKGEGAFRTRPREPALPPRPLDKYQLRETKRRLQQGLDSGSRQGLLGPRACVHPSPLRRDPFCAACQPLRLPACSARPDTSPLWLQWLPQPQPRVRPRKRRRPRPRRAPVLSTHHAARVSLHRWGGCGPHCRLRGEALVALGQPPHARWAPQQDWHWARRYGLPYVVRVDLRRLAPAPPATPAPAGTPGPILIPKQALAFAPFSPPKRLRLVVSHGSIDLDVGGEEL
Chain of Histone-lysine N-methyltransferase KMT5B (Homo sapiens) (Q4FZB7 whole entry, looked up, the tested form may be a part): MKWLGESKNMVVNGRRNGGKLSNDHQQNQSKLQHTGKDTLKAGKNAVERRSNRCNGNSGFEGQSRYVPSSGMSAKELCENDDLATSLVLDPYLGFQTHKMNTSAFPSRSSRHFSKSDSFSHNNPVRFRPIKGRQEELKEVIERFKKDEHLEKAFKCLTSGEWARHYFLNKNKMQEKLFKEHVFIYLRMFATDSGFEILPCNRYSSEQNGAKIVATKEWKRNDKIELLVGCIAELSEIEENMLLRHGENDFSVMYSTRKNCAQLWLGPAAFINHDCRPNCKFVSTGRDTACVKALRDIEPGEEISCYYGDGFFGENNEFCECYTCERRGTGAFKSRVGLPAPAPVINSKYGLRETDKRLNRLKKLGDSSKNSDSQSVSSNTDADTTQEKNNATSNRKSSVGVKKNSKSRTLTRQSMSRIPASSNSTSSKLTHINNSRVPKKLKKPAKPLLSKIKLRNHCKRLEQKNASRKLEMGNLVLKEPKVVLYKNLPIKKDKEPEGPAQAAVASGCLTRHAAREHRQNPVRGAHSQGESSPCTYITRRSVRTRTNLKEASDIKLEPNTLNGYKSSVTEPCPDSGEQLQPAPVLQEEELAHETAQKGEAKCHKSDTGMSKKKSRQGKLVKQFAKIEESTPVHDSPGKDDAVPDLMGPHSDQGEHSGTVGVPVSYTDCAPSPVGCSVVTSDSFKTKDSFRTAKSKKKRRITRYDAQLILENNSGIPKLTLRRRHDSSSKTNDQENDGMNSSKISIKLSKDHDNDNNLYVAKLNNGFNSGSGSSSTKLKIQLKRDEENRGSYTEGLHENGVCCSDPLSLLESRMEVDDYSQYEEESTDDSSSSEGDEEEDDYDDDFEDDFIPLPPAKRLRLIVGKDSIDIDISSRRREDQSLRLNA

SMILES: Cc1nc(N)c2ncn(C3(C)CN(C(=O)c4cc(CN5CCN(C6CCCCCC6)CC5)n(C)n4)C3)c2n1
- IC50 [2]: 3000 nM
- IC50 [9]: 58 nM

SMILES: CC(C)N1CCN(Cc2cc(C(=O)N3CC(n4cnc5c(N)ncnc54)C3)nn2C)CC1
- inhibition [23]: > 50%
- IC50 [9]: 760 nM

SMILES: Cc1nc(N)c2ncn(C3CN(C(=O)c4ccn(CC5CCN(C6C=CCCCC6)CC5)c4)C3)c2n1 (configuration not stated)
- IC50 [2]: 23 nM
- Activity (MCF7 [24]): Non-Toxic
- IC50 [9]: 6 nM
- inhibition [25]: Active

SMILES: Cc1nc(N)c2ncn(C3CN(C(=O)c4cc(CC5CCN(C6CCCCCC6)CC5)n(C)n4)C3)c2n1
- IC50 [2]: 3000 nM
- IC50 [9]: 32 nM

SMILES: CCN(C(=O)CO)[C@H]1CN(/C(=N\C#N)Nc2cccc(OC(F)F)c2)N=C1c1ccc(Cl)c(Cl)c1
- inhibition [26]: 100%

Further lines, with some results ahead:

- inhibition [1]: inactive
- IC50 [2]: 16 nM
- IC50 [3]: 1300 to 3000 nM
- IC50 [4]: 1300 to 3000 nM
- IC50 [6]: 1300 to 3000 nM
- IC50 [7]: 1300 to 3000 nM
- IC50 [9]: 8 nM
- logD [10]: 1.3
- IC50 [14]: 1300 nM
- IC50 [15]: 1300 to 3000 nM
- inhibition [16]: Active
- inhibition [17]: 100%
- inhibition [19]: Active
- inhibition [20]: Active
- inhibition [21]: inactive
- inhibition [22]: Active
SMILES: Cc1cc2c(ncn2C2(C)CN(C(=O)c3ccn(CC4CCN([C@H]5C=CCCCC5)CC4)c3)C2)c(N)n1
- Activity (U2OS): Non-Toxic
- Activity (MCF7 [5]): Non-Toxic
- Ratio IC50 (Homo sapiens [8]): > 60
- Ratio IC50 (Homo sapiens [11]): > 60
- Activity [12]: Non-Toxic
- Ratio IC50 (Homo sapiens [13]): 30
- Ratio IC50 (Homo sapiens [18]): 30

- inhibition [27]: inactive
SMILES: Cc1cc2c(ncn2C2(C)CN(C(=O)c3ccn(CC4CCN([C@@H]5C=CCCCC5)CC4)c3C)C2)c(N)n1

- IC50 [2]: 4000 nM
- IC50 [9]: 23 nM
SMILES: Cc1nc(N)c2ncn(C3CN(C(=O)c4ccn(CC5CCN(C6CCCCCC6)CC5)c4)C3)c2n1
